This is an account of results in US6352993B1, “Pyrimidine derivatives and processes for the preparation thereof” (Yuhan Corporation, priority 1997, dated 2002).

In assay [1] the test system is gastric secretion in pylorus-ligated Sprague-Dawly rats. In words: Inhibition of gastric secretion (pylorus-ligated rats, Shay method). The conditions noted are these: 20 mg/kg intraduodenally, 5 hours; for Relative conc.: gastric juice acidity relative to omeprazole, equation (II); for Relative volume: gastric juice amount relative to omeprazole, equation (I); for Relative Acid Output: total acid output relative to omeprazole, equation (III). Format: in vivo. The protocol:
Test 2: Inhibition of gastric secretion
In accordance with the method disclosed in Shay, H., et al., Gastroenterology 5 43-61(1945), Test 2 was carried out.
Sprague-Dawly rats having a body weight of 170±10 g were divided into 3 groups(n=5) and deprived of food for 24 hours before the experiment with free access to water. Under ether anesthesia, the abdomen was incised, and the pylorus was ligated. As a comparative group, Group 1 was administered intraduodenally in a volume of 0.5 ml/200 g of 30% aqueous polyethylene glycol 400 solution. Groups 2 and 3 were administered intraduodenally with the compound of Example and omeprazole, respectively, each of which was suspended in 30% aqueous polyethylene glycol 400 solution at a concentration of 20 mg/kg. After closing the abdominal cavity, the rats were placed for 5 hours and then killed by cervical dislocation. The stomach was extracted to obtain gastric juice.
Tne gastric juice was centrifuged at 1,000 g to remove precipitates. The amount and acidity of the gastric juice were measured. Relative volumes, relative acid concentrations and relative acid outputs of the test compounds were calculated from equations(I), (II) and (III) and the results are shown in Table 2.
Relative volume=(the average amount of gastric juice of Group 1—the average amount of gastric juice of Group 2)/(the average amount of gastric juice of Group 1−the average amount of gastric juice of Group 3)—(I)
Relative acid concerntration=(the average acidity of Group 1—the average acidity of Group 2)/(the average acidity of Group 1—the average acidity of Group 3)—(II)
Relative acid output (the total amount of acid output of Group 1—the total amount of acid output of Group 2)/(the total amount of acid output of Group 1—the total amount of acid output of Group 3)—(m)

In assay [2] the target is proton pump (H+/K+-ATPase) (UniProt P19156). In words: Inhibition of proton pump (H+/K+-ATPase activity). Format: biochemical. Details: Effect ratio. The note with it: relative to omeprazole IC50. The protocol: (§1) Test 1: Inhibition of proton pump (H^+/K^+-ATPase activity)
(§2) A proton pump enzyme was prepared by the same method as in the Experiment 1-1 of WO 94/14795. Further, the inhibitory effect of proton pump activity was measured by the same method as in Experiment 1-2 of WO 94/14795.
(§3) Namely, the proton pump activity stimulated by Mg^++ was used as a negative comparative group, and the activity stimulated by Mg^++ and K^+ was used as a positive comparative group. The comparative compound was omeprazole.
(§4) Test tubes were divided into 4 groups: Group 1 as negative comparative group(n=3), Group 2 as positive comparative group(n=3), Group 3(n=5×2) to be administered with the compound of the present invention and Group 4(n=5×2) to be administered with the comparative compound.
(§5) The inhibitory effects of Groups 3 and 4 on proton pump activity were measured by employing the compound prepared in Examples and omeprazole, respectively, each of which was dissolved in dimethylsulfoxide at 5 different concentrations.
(§6) To each of Groups 1, 2, 3 and 4 were added 100 μl of magnesium chloride(40 mM) dissolved in 40 mM Tris-HCI buffer(ph 6.0) and 100 μg of the enzyme source. The 50 μl of potassium chloride(50 mM) and 50 μl of ammonium chloride(6 mM) dissolved in 40 mM Tris-HCl buffer(pH 6.0) were added to all groups except for group 1.
(§7) 10 μl of dimethylsulfoxide was added to each of Groups 1 and 2; and to Group 3 was added 10 μl of dimethylsulfoxide solution prepared by dissolving compound of EXAMPLE at 5 different concentration(n=5×2). To Group 4, 10 μl of the solution prepared by dissolving omeprazole in dimethylsulfoxide at 5 different concentration(37.6, 21.4, 12.2, 7.0 and 4.0 μM) was added(n=5×2). 40 mM Tris-HCI buffer(pH=6.0) was added thereto so as to make the total volume 400 μl.
(§8) Thereafter, the test tube of each Group were placed at 37° C. for 30 minutes for the preincubation. 100 μl ATP solution (6.6 mM) was added until the reaction volume became 500 μl. After the reaction was carried out at 37° C. for 30 minutes, 25% cold trichloroacetic acid was added to terminate the enzyme reaction. The released inorganic phosphate was measured by an automatic analyzer(Express 550, coming).
(§9) The difference between Group 1 and Group 2 represents the proton pump activity activated by K^+ only. The IC50s of Group 3 and 4 were calculated from Litchfield-wilcoxon equation[see, e.g., J. Pharrnacol. Exp. Ther., 96, 99(1949)]. The concentrations of the test compounds inhibiting 50% of the proton pump activity are represented as IC50 in Table 1.

Assay [3] shares this target. In words: Inhibition of proton pump (H+/K+-ATPase activity). The assay is classed as biochemical. Details: other: K+-stimulated proton pump activity, pH 6.0, 37°. The conditions noted are these: K+-stimulated proton pump activity, pH 6.0, 37° C., 30 minutes preincubation; read-out: IC50 (concentration inhibiting 50% of the proton pump activity). The protocol: as §1, §2, §3, §4, §5, §6, §7, §8, §9

Molecules are shown by their SMILES.

In the case of `Cc1csc(Nc2nc(C)c(C)c(N3CCc4ccccc4C3)n2)n1.Cl` [Example 23, 5,6-dimethyl-2-(4-methylthiazol-2-yl)amino-4-(1,2,3,4-tetrahydroisoquinolin-2-yl)pyrimidine hydrochloride], in assay [1], the Relative conc. is given as 1.34, the Relative volume is recorded as 1.58 and the “Relative Acid Output” value is 1.23. In addition, in assay [2], the Effect ratio came out at 25.8. Also, the IC50 in assay [3] turned out to be 430 nM.
With `COCc1nc(Nc2ccc(F)cc2)nc(N2CCc3ccccc3C2C)c1C.Cl` (stereo not shown) [Example 28, 6-methoxymethyl-5-methyl-2-(4-fluorophenylamino)-4-(1-methyl-1,2,3,4-tetrahydroisoquinolin-2-yl)pyrimidine hydrochloride], in assay [1], the Relative conc. turned out to be 0.60, the Relative volume worked out at 0.78 and the “Relative Acid Output” value is reported as 0.78. Besides, the Effect ratio in assay [2] was determined as 6.4. The IC50 in assay [3] was determined as 1740 nM.
`COCc1nc(Nc2ccc(F)cc2C)nc(N2CCc3ccccc3C2)c1C.Cl` [Example 27, 6-methoxymethyl-5-methyl-2-(4-fluoro-2-methylphenylamino)-4-(1,2,3,4-tetrahydroisoquinolin-2-yl)pyrimidine hydrochloride]: in assay [1], the Relative conc. came to 0.68, the Relative volume is given as 0.99 and the “Relative Acid Output” value is on record as 0.90. The Effect ratio in assay [2] was found to be 7.2. In addition, in assay [3], the IC50 was 1550 nM.
For the compound `COCc1nc(Nc2ccccc2)nc(N2CCc3ccccc3C2C)c1C.Cl` (stereo not shown) [Example 31, 6-methoxymethyl-5-methyl-2-phenylamino-4-(1-methyl-1,2,3,4-tetrahydroisoquinolin-2-yl)pyrimidine hydrochloride], in assay [1], the Relative conc. stood at 0.97, the Relative volume stood at 1.06 and the “Relative Acid Output” value came to 1.01. Further, the Effect ratio in assay [2] amounted to 4.3. The IC50 in assay [3] was 2560 nM.
As to `Cc1ccccc1Nc1nc(CO)c(C)c(N2CCc3ccccc3C2C)n1.Cl` (stereo not shown) [Example 34, 6-hydroxymethyl-5-methyl-2-(2-methylphenylamino)-4-(1-methyl-1,2,3,4-tetrahydroisoquinolin-2-yl)pyrimidine hydrochloride], in assay [1], the Relative conc. is 0.45, the Relative volume came to 0.81 and the “Relative Acid Output” value was 0.78. In assay [2], the Effect ratio amounted to 25.8. Besides, the IC50 in assay [3] worked out at 430 nM.
Regarding `Cc1nc(Nc2ccc(F)cc2)nc(N2CCc3cc(O)ccc3C2C)c1C.Cl` (stereo not shown) [Example 36, 5,6-dimethyl-2-(4-fluorophenylamino)-4-(1-methyl-6-hydroxy-1,2,3,4-tetrahydroisoquinolin-2-yl)pyrimidine hydrochloride], in assay [1], the Relative conc. turned out to be 1.08, the Relative volume came to 1.05 and the “Relative Acid Output” value is listed as 1.15. In addition, the Effect ratio in assay [2] was 35.8. Also, the IC50 in assay [3] stood at 310 nM.
Regarding `Cc1csc(Nc2nc(C)c(C)c(N3CCc4ccccc4C3C)n2)n1.Cl` (stereo not shown) [Example 22, 5,6-dimethyl-2-(4-methylthiazol-2-yl)amino-4-(1-methyl-1,2,3,4-tetrahydroisoquinolin-2-yl)pyrimidine hydrochloride], in assay [1], the Relative conc. is 0.46, the Relative volume came out at 0.59 and the “Relative Acid Output” value is 0.62. Also, the Effect ratio in assay [2] was found to be 1.7. Further, the IC50 in assay [3] was found to be 6690 nM.
On to `COCc1nc(Nc2ccc(F)cc2C)nc(N2CCc3ccccc3C2C)c1C.Cl` (stereo not shown) [Example 29, 6-methoxymethyl-5-methyl-2-(2-methyl-4-fluorophenylamino)-4-(1-methyl-1,2,3,4-tetrahydroisoquinolin-2-yl)pyrimidine hydrochloride], for which, in assay [1], the Relative conc. stood at 0.81, the Relative volume came out at 0.78 and the “Relative Acid Output” value came out at 0.88. For the same compound, in assay [2], the Effect ratio is recorded as 4.4. In assay [3], the IC50 was found to be 2550 nM.
As to `COCc1nc(Nc2ccc(F)cc2)nc(N2CCc3ccccc3C2)c1C.Cl` [Example 26, 6-methoxymethyl-5-methyl-2-(4-fluorophenylamino)-4-(1,2,3,4-tetrahydroisoquinolin-2-yl)pyrimidine hydrochloride], in assay [1], the Relative conc. is reported as 0.64, the Relative volume was determined as 0.67 and the “Relative Acid Output” value came to 0.74. In assay [2], the Effect ratio is 4.3. For the same compound, the IC50 in assay [3] is 2600 nM.
For `Cc1nc(NCC(C)C)nc(N2CCc3ccccc3C2C)c1C` (stereo not shown) [Example 14, 5,6-dimethyl-2-isobutylamino-4-(1-methyl-1,2,3,4-tetrahydroisoquinolin-2-yl)pyrimidine], in assay [1], the Relative conc. is listed as 0.41, the Relative volume worked out at 0.93 and the “Relative Acid Output” value is listed as 0.79. For the same compound, in assay [2], the Effect ratio was found to be 5.2. Moreover, the IC50 in assay [3] amounted to 2150 nM.
For `COCCNc1nc(C)c(C)c(N2CCc3ccccc3C2)n1.Cl` [Example 5, 5,6-dimethyl-2-(2-methoxyethylamino)-4-(1,2,3,4-tetrahydroisoquinolin-2-yl)pyrimidine hydrochloride], in assay [1], the Relative conc. is on record as 0.18, the Relative volume was 0.45 and the “Relative Acid Output” value is 0.43. Further, the Effect ratio in assay [2] came to 1.6. Moreover, the IC50 in assay [3] worked out at 6910 nM.
